Results: PMC9671962 (Communications Biology, 2022)
“And” between values parts separate entries of the source, which are not always exact repeats. Equal values may be shown once.

Tests used:
Format in all cases: in vivo
COG-N-519x = assay: Pre-clinical efficacy study, COG-N-519x PDX; details: single mouse
Procedure: (§1) Patient demographics and genetic characteristics are listed in (Supplementary Tables 1, 2)[17]. The maximum tolerated dose (MTD) was determined to be 36 MBq/kg administered by intra-peritoneal injection twice weekly for a total of 4 dose fractions and this fractionated regimen was used in all studies (Supplementary Fig. 1)[18],[19]. […] Nine of 11 PDX models were MYCN amplified (Fig. 1b), which is a hallmark of high-risk neuroblastoma. Tumor response was measured as the maximum percent decrease in tumor volume after treatment and event-free survival (EFS) was measured by the area over the curve method with tumor events pre-defined by tumor growth exceeding 2 cm[3],[18].
(§2) The use of 2 mice per arm was based on the previously reported statistical analysis. PDX tumors were implanted into the right flank of 5 to 6-weeks old female mice weighing about 20–25 grams. […] Two additional dose levels of 12, and 24 MBq/kg/fraction were assessed in a subset of models and were administered as stated above. In two models treated at the 24 MBq/kg/fraction dose level we re-challenged tumor response at the time of tumor progression with an additional 4 dose fractions at 24 MBq/kg/fraction given twice weekly. Doses were prepared in 500 µL total volume. An equal volume of saline was used for the vehicle group. Tumors were measured using a digital caliper at the initiation of the study and two times per week during the treatment period. Tumor volumes were calculated as volume = ([…]∗0.5236)/1000. Weights were obtained twice weekly and mice were monitored daily for signs of toxicity. […] Tumor response was assessed by best response defined as greatest reduction in tumor volume following the last dose and is presented as percent change in tumor volume. Event-free survival was determined by area over the curve method that calculates the time to tumor event, which was defined as tumors reaching or exceeding a size ≥ 2 cm^3.
Animal studies were performed in female mice due to the lack of sex-related differences for [^211At]PTT tolerability from initial dose response studies performed in female and male mice. Female mice were chosen due to their underlying behavior towards other study subjects that reduced nonstudy-related causes for decreased wellness. Pre-clinical efficacy studies were performed through “single mouse testing” to more closely recapitulate a clinical trial. […] Number size for treatment groups was determined by model tumor growth reproducibility, which was previously shown to have less than 5% normal variation with at least two animals. Statistical tests for tumor response and event-free survival (EFS) were performed as a grouped analysis that included all tumor models treated at each respective dose level (n = 2 per model per dose level). Statistical differences between treatment groups for tumor response was performed by paired-model T-test that compared reduction in tumor volume for the 36 MBq/kg dose level vs. 24 MBq/kg or 12 MBq/kg. Event free survival was measured by area over the curve method to quantify time to event, which was set as tumor growth exceeding 2 cm[3],[19]. Differences in EFS were tested across all treated models for each respective dose level, and against untreated controls, by paired-model ANOVA analysis. Associations of drug target expression and response were performed by linear regression analysis of EFS and PARP1 mRNA expression. Genetic signatures were visually presented as a function of EFS and no statistical tests were applied. Blood and marrow toxicity studies were performed with n = 5 sample sizes and powered to detect >20% differences between untreated controls and treated animals. Results were tested for significance by one-way ANOVA comparison from untreated controls. Marrow colony formation assays were performed in replicates of 2 for each mouse subject, dependent on marrow isolation, and all replicates are included in final analyses. […]

COG-N-471x = assay: Pre-clinical efficacy study, COG-N-471x PDX; details: 36 MBq/kg/fraction x 4 fractions, single mouse
Procedure: as §1
(§3) The use of 2 mice per arm was based on the previously reported statistical analysis. […] Two additional dose levels of 12, and 24 MBq/kg/fraction were assessed in a subset of models and were administered as stated above. […] Tumors were measured using a digital caliper at the initiation of the study and two times per week during the treatment period. Tumor volumes were calculated as volume = ((diameter^1/2 + diameter^2/2)^3∗0.5236)/1000. Weights were obtained twice weekly and mice were monitored daily for signs of toxicity. […] Tumor response was assessed by best response defined as greatest reduction in tumor volume following the last dose and is presented as percent change in tumor volume. […]

NB-SDx = assay: Pre-clinical efficacy study, NB-SDx PDX; details: single mouse
Procedure: as §1, §2
Animal studies were performed in female mice due to the lack of sex-related differences for [^211At]PTT tolerability from initial dose response studies performed in female and male mice. Female mice were chosen due to their underlying behavior towards other study subjects that reduced nonstudy-related causes for decreased wellness. Pre-clinical efficacy studies were performed through “single mouse testing” to more closely recapitulate a clinical trial. […] Number size for treatment groups was determined by model tumor growth reproducibility, which was previously shown to have less than 5% normal variation with at least two animals. […] Event free survival was measured by area over the curve method to quantify time to event, which was set as tumor growth exceeding 2 cm[3],[19]. […]

COG-N-421x = assay: Pre-clinical efficacy study, COG-N-421x PDX; details: 36 MBq/kg/fraction x 4 fractions, single mouse
Procedure: as §1, §3

[1] = 12 MBq/kg/fraction x 4 fractions
[2] = 24 MBq/kg/fraction x 4 fractions
[3] = 36 MBq/kg/fraction x 4 fractions

O=C1NCCn2c(-c3ccc([211At])cc3)nc3cccc1c32 [[^211At]PTT, Astatine-211-parthanatine]
EFS by AOC method (COG-N-519x; [1]): 22.7688 days and 33.292 days
Tumor response (% growth from study initiation at ~ 200 mm3) (COG-N-519x; [1]): -46.1538% and -36.8421%
EFS by AOC method (COG-N-519x; [2]): 28.2857 days and 42.6471 days
Tumor response (% growth from study initiation at ~ 200 mm3) (COG-N-519x; [2]): -83.871% and -100%
EFS by AOC method (COG-N-519x; [3]): 82.4 Days and 100. 5 Days and 82.4108 Days and 100.511 Days
Tumor response (% growth from study initiation at ~ 200 mm3) (COG-N-519x; [3]): -100%
EFS by AOC method (COG-N-471x): 83.4773 days and 64.9075 days
Tumor response (% growth from study initiation at ~ 200 mm3) (COG-N-471x): -100%
EFS by AOC method (NB-SDx; [2]): 44.1 days and 46.5 days and 44.0589 days and 46.4742 days
Tumor response (% growth from study initiation at ~ 200 mm3) (NB-SDx; [2]): -80.9524% and -80%
EFS by AOC method (NB-SDx; [3]): 59.408 days and 51.1551 days
Tumor response (% growth from study initiation at ~ 200 mm3) (NB-SDx; [3]): -96.9697% and -85.7143%
EFS by AOC method (COG-N-421x): 61.4391 days and 76.0056 days
Tumor response (% growth from study initiation at ~ 200 mm3) (COG-N-421x): -100%
